Source: patent US10351575B2, “Bicyclic urea, thiourea, guanidine and cyanoguanidine compounds useful for the treatment of pain” (Array BioPharma Inc., priority 2012, dated 2019)

How the values were obtained:
Test in all cases: KinaseProfiler off-target kinase profiling
Type in all cases: biochemical
Conditions in all cases: 10 μM, ATP near Km
EphA5 = EphA5 (Homo sapiens (Human), UniProt P54756)
Summary of the method: (§1)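 Data represent percent of control averaged across duplicates, from a one-concentration (10 μM) test with kinase-specific near-Km ATP.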

Flt3 = Flt3 (Homo sapiens (Human), UniProt P36888)
Flt3, sequence (P36888 27-993): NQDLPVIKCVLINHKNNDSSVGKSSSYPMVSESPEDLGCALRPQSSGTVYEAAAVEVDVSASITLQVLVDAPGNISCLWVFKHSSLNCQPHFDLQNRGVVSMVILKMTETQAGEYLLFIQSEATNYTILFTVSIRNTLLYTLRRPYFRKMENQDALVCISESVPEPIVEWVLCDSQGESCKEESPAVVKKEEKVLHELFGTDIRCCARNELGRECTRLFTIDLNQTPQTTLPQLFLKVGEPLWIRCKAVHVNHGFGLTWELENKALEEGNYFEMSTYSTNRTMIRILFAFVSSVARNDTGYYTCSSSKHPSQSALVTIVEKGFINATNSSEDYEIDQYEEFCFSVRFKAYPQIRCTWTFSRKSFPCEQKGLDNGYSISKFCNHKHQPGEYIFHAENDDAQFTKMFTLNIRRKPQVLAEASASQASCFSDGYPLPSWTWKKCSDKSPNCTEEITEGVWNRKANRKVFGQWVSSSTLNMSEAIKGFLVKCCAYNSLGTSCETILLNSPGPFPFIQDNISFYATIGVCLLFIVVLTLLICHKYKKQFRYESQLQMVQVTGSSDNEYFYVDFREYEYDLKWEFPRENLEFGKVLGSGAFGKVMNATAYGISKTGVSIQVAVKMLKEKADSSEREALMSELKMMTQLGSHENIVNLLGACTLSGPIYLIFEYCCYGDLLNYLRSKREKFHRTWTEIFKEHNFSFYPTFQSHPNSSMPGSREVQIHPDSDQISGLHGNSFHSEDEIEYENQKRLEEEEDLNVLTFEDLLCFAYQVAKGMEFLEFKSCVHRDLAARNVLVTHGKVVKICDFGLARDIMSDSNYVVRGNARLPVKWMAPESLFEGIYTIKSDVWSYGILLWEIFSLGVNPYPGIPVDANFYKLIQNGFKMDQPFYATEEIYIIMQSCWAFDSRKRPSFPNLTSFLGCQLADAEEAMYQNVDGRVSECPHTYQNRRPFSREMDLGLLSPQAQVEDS
Summary of the method: as §1

GSK3beta = GSK3beta (Homo sapiens (Human), UniProt P49841)
GSK3beta, sequence (P49841 whole entry): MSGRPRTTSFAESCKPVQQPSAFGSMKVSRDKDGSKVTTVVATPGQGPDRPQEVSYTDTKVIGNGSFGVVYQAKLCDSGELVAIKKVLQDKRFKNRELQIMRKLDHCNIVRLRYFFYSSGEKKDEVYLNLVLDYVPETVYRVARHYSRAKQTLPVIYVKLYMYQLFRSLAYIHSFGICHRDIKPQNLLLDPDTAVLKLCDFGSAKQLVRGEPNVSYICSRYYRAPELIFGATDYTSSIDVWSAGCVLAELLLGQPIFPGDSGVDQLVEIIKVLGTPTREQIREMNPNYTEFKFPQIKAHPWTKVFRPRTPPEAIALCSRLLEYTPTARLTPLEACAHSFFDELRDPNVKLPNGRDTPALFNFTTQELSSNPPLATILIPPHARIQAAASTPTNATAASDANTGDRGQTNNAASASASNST
Summary of the method: as §1

PKCdelta = PKCdelta (Homo sapiens (Human), UniProt Q05655)
Summary of the method: as §1

MARK2 = MARK2 (Homo sapiens (Human), UniProt Q7KZI7)
Summary of the method: as §1

Txk = Txk (Homo sapiens (Human), UniProt P42681)
Summary of the method: as §1

PKAC-alpha = PKAC-alpha (Homo sapiens (Human), UniProt P17612)
Summary of the method: as §1

DRAK1 = DRAK1 (Homo sapiens (Human), UniProt Q9UEE5)
Summary of the method: as §1

CDK7/cyclinH/MAT1 = CDK7/cyclinH/MAT1 (Homo sapiens (Human), UniProt P50613)
Summary of the method: as §1

eEF-2K = eEF-2K (Homo sapiens (Human), UniProt O00418)
Summary of the method: as §1

Syk = Syk (Homo sapiens (Human), UniProt P43405)
Summary of the method: as §1

VRK2 = VRK2 (Homo sapiens (Human), UniProt Q86Y07)
VRK2, sequence (Q86Y07 whole entry): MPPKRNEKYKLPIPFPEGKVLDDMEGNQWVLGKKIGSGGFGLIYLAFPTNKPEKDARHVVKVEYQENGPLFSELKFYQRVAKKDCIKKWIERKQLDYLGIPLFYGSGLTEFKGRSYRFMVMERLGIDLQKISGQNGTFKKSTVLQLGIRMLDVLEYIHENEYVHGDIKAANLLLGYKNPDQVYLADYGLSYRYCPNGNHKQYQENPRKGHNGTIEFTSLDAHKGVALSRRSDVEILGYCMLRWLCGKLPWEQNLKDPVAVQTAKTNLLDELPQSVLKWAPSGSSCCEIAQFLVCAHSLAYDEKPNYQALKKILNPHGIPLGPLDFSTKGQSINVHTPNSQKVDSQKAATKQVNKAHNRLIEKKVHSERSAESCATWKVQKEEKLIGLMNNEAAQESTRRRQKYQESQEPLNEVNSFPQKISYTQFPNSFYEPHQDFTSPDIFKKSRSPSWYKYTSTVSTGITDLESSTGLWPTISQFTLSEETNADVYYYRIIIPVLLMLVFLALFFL
Summary of the method: as §1

WNK2 = WNK2 (Homo sapiens (Human), UniProt Q9Y3S1)
Summary of the method: as §1

p38gamma = p38gamma (Homo sapiens (Human), UniProt P53778)
Summary of the method: as §1

EGFR = EGFR (Homo sapiens (Human), UniProt P00533)
Summary of the method: as §1

SGK3 = SGK3 (Homo sapiens (Human), UniProt Q96BR1)
Summary of the method: as §1

ULK2 = ULK2 (Homo sapiens (Human), UniProt Q8IYT8)
Summary of the method: as §1

TLK2 = TLK2 (Homo sapiens (Human), UniProt Q86UE8)
Summary of the method: as §1

PRKG1alpha = PRKG1alpha (Homo sapiens (Human), UniProt Q13976)
Summary of the method: as §1

HIPK2 = HIPK2 (Homo sapiens (Human), UniProt Q9H2X6)
Summary of the method: as §1

MSSK1 = MSSK1 (Homo sapiens (Human), UniProt Q9UPE1)
Summary of the method: as §1

Met = Met (Homo sapiens (Human), UniProt P08581)
Summary of the method: as §1

ZAP-70 = ZAP-70 (Homo sapiens (Human), UniProt P43403)
ZAP-70, sequence (P43403 whole entry): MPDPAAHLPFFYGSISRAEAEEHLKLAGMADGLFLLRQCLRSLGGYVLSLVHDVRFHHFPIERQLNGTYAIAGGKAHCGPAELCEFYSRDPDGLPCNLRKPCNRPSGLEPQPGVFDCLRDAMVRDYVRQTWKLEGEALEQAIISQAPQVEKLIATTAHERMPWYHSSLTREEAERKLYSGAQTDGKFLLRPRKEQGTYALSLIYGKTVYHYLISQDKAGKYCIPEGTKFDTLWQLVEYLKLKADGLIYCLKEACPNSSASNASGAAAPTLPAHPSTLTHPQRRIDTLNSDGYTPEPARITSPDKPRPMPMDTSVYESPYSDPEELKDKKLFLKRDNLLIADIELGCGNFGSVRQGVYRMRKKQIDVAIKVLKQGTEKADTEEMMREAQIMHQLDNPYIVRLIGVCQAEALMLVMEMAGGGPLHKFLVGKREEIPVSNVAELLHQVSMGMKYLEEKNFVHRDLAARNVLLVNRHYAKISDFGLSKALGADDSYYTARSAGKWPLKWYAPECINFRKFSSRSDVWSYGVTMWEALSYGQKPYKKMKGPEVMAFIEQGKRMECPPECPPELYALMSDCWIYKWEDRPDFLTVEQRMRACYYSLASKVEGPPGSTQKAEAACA
Summary of the method: as §1

PTK6 = PTK6 (Homo sapiens (Human), UniProt Q13882)
Summary of the method: as §1

MST3 = MST3 (Homo sapiens (Human), UniProt Q9Y6E0)
Summary of the method: as §1

CAMK1d = CAMK1d (Homo sapiens (Human), UniProt Q8IU85)
Summary of the method: as §1

PKCiota = PKCiota (Homo sapiens (Human), UniProt P41743)
PKCiota, sequence (P41743 whole entry): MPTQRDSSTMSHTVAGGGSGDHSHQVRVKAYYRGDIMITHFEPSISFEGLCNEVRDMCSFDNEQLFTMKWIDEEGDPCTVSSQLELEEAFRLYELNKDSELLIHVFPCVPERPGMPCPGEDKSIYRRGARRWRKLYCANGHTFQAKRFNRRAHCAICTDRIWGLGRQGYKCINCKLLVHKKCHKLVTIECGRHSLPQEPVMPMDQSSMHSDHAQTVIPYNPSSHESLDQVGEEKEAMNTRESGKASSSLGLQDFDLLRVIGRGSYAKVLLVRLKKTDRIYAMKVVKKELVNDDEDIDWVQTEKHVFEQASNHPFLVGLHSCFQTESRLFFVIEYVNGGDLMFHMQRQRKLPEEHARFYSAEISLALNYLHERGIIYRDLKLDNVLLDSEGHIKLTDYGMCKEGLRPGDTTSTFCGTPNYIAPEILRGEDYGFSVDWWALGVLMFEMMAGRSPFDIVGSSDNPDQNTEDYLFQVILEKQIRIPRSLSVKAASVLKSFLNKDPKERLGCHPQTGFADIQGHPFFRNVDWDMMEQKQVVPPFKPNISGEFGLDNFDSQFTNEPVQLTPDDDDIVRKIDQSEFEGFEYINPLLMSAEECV
Summary of the method: as §1

PDGFRbeta = PDGFRbeta (Homo sapiens (Human), UniProt P09619)
Summary of the method: as §1

ALK = ALK (Homo sapiens (Human), UniProt Q9UM73)
Summary of the method: as §1

PKCeta = PKCeta (Homo sapiens (Human), UniProt P24723)
Summary of the method: as §1

NEK11 = NEK11 (Homo sapiens (Human), UniProt Q8NG66)
Summary of the method: as §1

Fms = Fms (Homo sapiens (Human), UniProt P07333)
Summary of the method: as §1

EphA8 = EphA8 (Homo sapiens (Human), UniProt P29322)
EphA8, sequence (P29322 28-1005): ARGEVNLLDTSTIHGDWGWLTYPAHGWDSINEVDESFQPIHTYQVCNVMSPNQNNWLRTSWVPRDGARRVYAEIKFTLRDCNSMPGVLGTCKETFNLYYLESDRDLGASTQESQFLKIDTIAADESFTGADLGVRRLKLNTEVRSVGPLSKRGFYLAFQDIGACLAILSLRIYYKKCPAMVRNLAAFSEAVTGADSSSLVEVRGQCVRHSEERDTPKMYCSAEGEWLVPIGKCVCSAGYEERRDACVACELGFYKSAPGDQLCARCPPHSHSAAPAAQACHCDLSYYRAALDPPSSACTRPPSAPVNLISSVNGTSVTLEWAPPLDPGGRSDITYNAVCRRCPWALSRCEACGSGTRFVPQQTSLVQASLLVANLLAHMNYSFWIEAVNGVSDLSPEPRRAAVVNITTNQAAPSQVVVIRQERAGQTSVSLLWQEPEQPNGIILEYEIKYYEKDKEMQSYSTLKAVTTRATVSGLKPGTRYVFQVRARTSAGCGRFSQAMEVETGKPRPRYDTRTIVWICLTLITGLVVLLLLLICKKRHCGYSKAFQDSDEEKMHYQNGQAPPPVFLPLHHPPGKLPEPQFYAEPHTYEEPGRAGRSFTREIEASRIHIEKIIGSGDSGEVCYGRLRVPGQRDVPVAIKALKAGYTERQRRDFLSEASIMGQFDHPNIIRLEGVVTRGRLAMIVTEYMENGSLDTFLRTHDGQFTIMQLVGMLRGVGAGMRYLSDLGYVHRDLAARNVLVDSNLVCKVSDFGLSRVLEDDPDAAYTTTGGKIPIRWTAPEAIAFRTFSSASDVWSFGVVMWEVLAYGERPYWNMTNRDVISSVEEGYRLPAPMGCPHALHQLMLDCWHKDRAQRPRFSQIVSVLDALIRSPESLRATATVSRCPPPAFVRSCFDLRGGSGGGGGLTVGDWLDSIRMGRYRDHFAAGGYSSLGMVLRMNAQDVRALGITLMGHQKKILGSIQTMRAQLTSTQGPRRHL
Summary of the method: as §1

SGK2 = SGK2 (Homo sapiens (Human), UniProt Q9HBY8)
Summary of the method: as §1

FGFR2 = FGFR2 (Homo sapiens (Human), UniProt P21802)
FGFR2, sequence (P21802 22-821): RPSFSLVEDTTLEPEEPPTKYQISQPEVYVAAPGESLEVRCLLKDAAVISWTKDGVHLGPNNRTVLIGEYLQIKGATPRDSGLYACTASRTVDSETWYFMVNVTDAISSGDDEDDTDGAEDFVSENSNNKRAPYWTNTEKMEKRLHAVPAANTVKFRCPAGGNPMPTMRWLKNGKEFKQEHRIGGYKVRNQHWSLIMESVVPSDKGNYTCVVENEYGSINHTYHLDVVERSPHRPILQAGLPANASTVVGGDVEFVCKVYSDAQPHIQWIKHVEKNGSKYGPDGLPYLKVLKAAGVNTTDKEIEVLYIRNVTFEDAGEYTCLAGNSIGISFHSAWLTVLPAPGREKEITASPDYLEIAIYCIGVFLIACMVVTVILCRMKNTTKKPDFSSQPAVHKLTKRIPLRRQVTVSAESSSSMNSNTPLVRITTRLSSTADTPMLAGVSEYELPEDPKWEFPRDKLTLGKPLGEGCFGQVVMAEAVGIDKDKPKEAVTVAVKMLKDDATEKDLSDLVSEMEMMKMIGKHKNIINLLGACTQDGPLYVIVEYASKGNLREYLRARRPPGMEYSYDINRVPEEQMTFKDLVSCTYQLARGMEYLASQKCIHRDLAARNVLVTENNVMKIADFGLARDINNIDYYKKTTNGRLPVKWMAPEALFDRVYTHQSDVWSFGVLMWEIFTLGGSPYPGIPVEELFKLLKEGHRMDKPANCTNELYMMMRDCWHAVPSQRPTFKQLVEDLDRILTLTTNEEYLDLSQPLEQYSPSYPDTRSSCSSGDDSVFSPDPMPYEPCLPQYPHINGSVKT
Summary of the method: as §1

PAK6 = PAK6 (Homo sapiens (Human), UniProt Q9NQU5)
Summary of the method: as §1

PrKX = PrKX (Homo sapiens (Human), UniProt P51817)
Summary of the method: as §1

ITK = ITK (Homo sapiens (Human), UniProt Q08881)
Summary of the method: as §1

PKCzeta = PKCzeta (Homo sapiens (Human), UniProt Q05513)
Summary of the method: as §1

Row | Avg. POC (EphA5) | Avg. POC (Flt3) | Avg. POC (GSK3beta) | Avg. POC (PKCdelta) | Avg. POC (MARK2) | Avg. POC (Txk) | Avg. POC (PKAC-alpha) | Avg. POC (DRAK1) | Avg. POC (CDK7/cyclinH/MAT1) | Avg. POC (eEF-2K) | Avg. POC (Syk) | Avg. POC (VRK2) | Avg. POC (WNK2) | Avg. POC (p38gamma) | Avg. POC (EGFR) | Avg. POC (SGK3) | Avg. POC (ULK2) | Avg. POC (TLK2) | Avg. POC (PRKG1alpha) | Avg. POC (HIPK2) | Structure (SMILES) | also measured
1 | 119 POC | 96.5 POC | 126 POC | 95 POC | 109 POC | 125 POC | 138.5 POC | 108.5 POC | 111 POC | 138 POC | 115 POC | 109 POC | 99 POC | 115 POC | 114 POC | 137.5 POC | 99 POC | 100 POC | 127.5 POC | 97 POC | Cc1c(-c2cnn(C)c2)nn(-c2ccccc2)c1NC(=O)N[C@H]1CCCc2ccccc21 [Example 2, (S)-1-(1′,4-dimethyl-1-phenyl-1H,1′H-3,4′-bipyrazol-5-yl)-3-(1,2,3,4-tetrahydronaphthalen-1-yl)urea] | Avg. POC (MSSK1): 116 POC; Avg. POC (Met): 148.5 POC; Avg. POC (ZAP-70): 124 POC; Avg. POC (PTK6): 129 POC; Avg. POC (MST3): 120 POC; Avg. POC (CAMK1d): 127 POC; Avg. POC (PKCiota): 95.5 POC; Avg. POC (PDGFRbeta): 149 POC; Avg. POC (ALK): 111 POC; Avg. POC (PKCeta): 107 POC; Avg. POC (NEK11): 108.5 POC; Avg. POC (Fms): 82 POC; Avg. POC (EphA8): 128.5 POC; Avg. POC (SGK2): 166.5 POC; Avg. POC (FGFR2): 112.5 POC; Avg. POC (PAK6): 119.5 POC; Avg. POC (PrKX): 152 POC; Avg. POC (ITK): 117.5 POC; Avg. POC (PKCzeta): 122.5 POC
2 | 118.5 POC | 90 POC | 109.5 POC | 97.5 POC | 105.5 POC | 139 POC | 120.5 POC | 114 POC | 101 POC | 140 POC | 108.5 POC | 95 POC | 106.5 POC | 111 POC | 109.5 POC | 143.5 POC | 99 POC | 98 POC | 89.5 POC | 91.5 POC | Cc1c(-c2cnn(C)c2)nn(-c2ccccc2)c1NC(=O)NC1CCOc2cc(F)ccc21 (stereo not drawn) [Example 12, 1-(1′,4-dimethyl-1-phenyl-1H,1′H-[3,4′-bipyrazol]-5-yl)-3-(7-fluorochroman-4-yl)urea] | Avg. POC (MSSK1): 112.5 POC; Avg. POC (Met): 109 POC; Avg. POC (ZAP-70): 140 POC; Avg. POC (PTK6): 125.5 POC; Avg. POC (MST3): 131.5 POC; Avg. POC (CAMK1d): 137 POC; Avg. POC (PKCiota): 69.5 POC; Avg. POC (PDGFRbeta): 125.5 POC; Avg. POC (ALK): 103 POC; Avg. POC (PKCeta): 100 POC; Avg. POC (NEK11): 84.5 POC; Avg. POC (Fms): 91 POC; Avg. POC (EphA8): 122.5 POC; Avg. POC (SGK2): 148 POC; Avg. POC (FGFR2): 114 POC; Avg. POC (PAK6): 139 POC; Avg. POC (PrKX): 118.5 POC; Avg. POC (ITK): 114.5 POC; Avg. POC (PKCzeta): 99.5 POC
3 | 106.5 POC | 97.5 POC | 124.5 POC | 105 POC | 102.5 POC | 119 POC | 116 POC | 125 POC | 113.5 POC | 127.5 POC | 93.5 POC | 98 POC | 108 POC | 118 POC | 108 POC | 104 POC | 102 POC | 97 POC | 98 POC | 103 POC | Cc1c(-c2ccc(=O)n(C)c2)nn(-c2ccccc2)c1NC(=O)NC1CN(CC(F)(F)F)Cc2ccccc21 (stereo not drawn) [Example 26, 1-(4-methyl-3-(1-methyl-6-oxo-1,6-dihydropyridin-3-yl)-1-phenyl-1H-pyrazol-5-yl)-3-(2-(2,2,2-trifluoroethyl)-1,2,3,4-tetrahydroisoquinolin-4-yl)urea] | Avg. POC (MSSK1): 120.5 POC; Avg. POC (Met): 81 POC; Avg. POC (ZAP-70): 120.5 POC; Avg. POC (PTK6): 121 POC; Avg. POC (MST3): 108.5 POC; Avg. POC (CAMK1d): 97 POC; Avg. POC (PKCiota): 85.5 POC; Avg. POC (PDGFRbeta): 122.5 POC; Avg. POC (ALK): 117 POC; Avg. POC (PKCeta): 98 POC; Avg. POC (NEK11): 113.5 POC; Avg. POC (Fms): 96 POC; Avg. POC (EphA8): 118.5 POC; Avg. POC (SGK2): 123.5 POC; Avg. POC (FGFR2): 112 POC; Avg. POC (PAK6): 116.5 POC; Avg. POC (PrKX): 109 POC; Avg. POC (ITK): 122 POC; Avg. POC (PKCzeta): 108.5 POC
4 | 104.5 POC | 115 POC | 84.5 POC | 99 POC | 107.5 POC | 127 POC | 90 POC | 105.5 POC | 122.5 POC | 115 POC | 115 POC | 100.5 POC | 108.5 POC | 116.5 POC | 102 POC | 134 POC | 103 POC | 92 POC | 84 POC | 99.5 POC | COCc1ccc2c(c1)C(NC(=O)Nc1c(C)c(-c3cnn(C)c3)nn1-c1ccccc1)COC2 (stereo not drawn) [Example 32, 1-(1′,4-dimethyl-1-phenyl-1H,1′H-[3,4′-bipyrazol]-5-yl)-3-(6-(methoxymethyl)isochroman-4-yl)urea] | Avg. POC (MSSK1): 105.5 POC; Avg. POC (Met): 118.5 POC; Avg. POC (ZAP-70): 124 POC; Avg. POC (PTK6): 100 POC; Avg. POC (MST3): 130.5 POC; Avg. POC (CAMK1d): 114 POC; Avg. POC (PKCiota): 71 POC; Avg. POC (PDGFRbeta): 131.5 POC; Avg. POC (ALK): 127 POC; Avg. POC (PKCeta): 111.5 POC; Avg. POC (NEK11): 108 POC; Avg. POC (Fms): 102 POC; Avg. POC (EphA8): 109 POC; Avg. POC (SGK2): 123.5 POC; Avg. POC (FGFR2): 110.5 POC; Avg. POC (PAK6): 116.5 POC; Avg. POC (PrKX): 110 POC; Avg. POC (ITK): 124 POC; Avg. POC (PKCzeta): 115 POC
